Measurements published in US7598033B2, “Method and devices for running reactions on a target plate for MALDI mass spectrometry” (University of Pennsylvania, priority 2003, dated 2009).

Columns and labels:
thrombin = thrombin (Homo sapiens, UniProt P00734); assay: Nanoliter thrombin/fibrinogen reaction on MALDI target, MS detection of fibrinopeptides A and B; format: biochemical; conditions: benzamidine in the nanoliter reaction, FIG. 26B
[1] = Fluorogenic substrate microarray, aerosol deposition of enzyme: boc-VPR-MCA; format: biochemical; conditions: after spray application
Description: Well characterized for over 30 years, serine proteases of the coagulation pathway in plasma were selected as a system in which to monitor the delivery of complex enzyme fluids to the microassay. Fluorogenic substrates in DMSO/glycerol were assayed to a glass slide.
After spray application, thrombin caused a 65-fold increase in fluorescence activity after conversion of the boc-VPR-MCA substrate. […] Aerosol deposition of pure tPA (10 μM) to a sensing array caused significant cleavage of the tPA, thrombin and Xa substrates, resulting in fluorescence that was 18- to 20-fold above background.

| inhibition of thrombin release of fibrinopeptides A and B from fibrinogen (thrombin) | Compound | increase in fluorescence activity after conversion of the boc-VPR-MCA substrate [1] [fold] |
| --- | --- | --- |
| completely inhibited | N=C(N)c1ccccc1 [Benzamidine] |  |
|  | thrombin | 65 |
